Laboratory results taken from patent US10233186B2, “Inhibitors of activin receptor-like kinase” (BLUEPRINT MEDICINES CORPORATION, priority 2016, dated 2019).
Where two headings read alike, the source gives them in different places.

Key:
[1] = target: T1, ALK2 R206H (GST-tagged mutant ALK2) (Homo sapiens, UniProt Q04771, R206H); test: ALK binding assay (LANTHASCREEN TR-FRET competitive binding, displacement of Kinase Tracer 178)
T1 construct: purchased Carna Bioscience or ThermoFisher 09-148 or PV6232
T1 sequence (Q04771 21-509 R206H): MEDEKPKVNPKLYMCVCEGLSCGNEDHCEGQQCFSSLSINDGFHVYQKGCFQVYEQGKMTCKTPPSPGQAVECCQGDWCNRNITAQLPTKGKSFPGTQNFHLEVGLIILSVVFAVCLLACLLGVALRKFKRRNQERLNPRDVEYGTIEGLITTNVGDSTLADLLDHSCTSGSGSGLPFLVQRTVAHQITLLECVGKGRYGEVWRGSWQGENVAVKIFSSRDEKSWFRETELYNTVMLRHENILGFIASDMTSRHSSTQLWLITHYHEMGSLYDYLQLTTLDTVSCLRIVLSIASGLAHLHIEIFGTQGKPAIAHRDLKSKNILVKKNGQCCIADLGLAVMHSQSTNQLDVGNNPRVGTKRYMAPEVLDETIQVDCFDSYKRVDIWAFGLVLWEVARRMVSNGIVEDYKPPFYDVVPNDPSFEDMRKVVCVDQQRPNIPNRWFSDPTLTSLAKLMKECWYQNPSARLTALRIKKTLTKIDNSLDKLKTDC

[2] = target: T2, human ALK2 R206H (Homo sapiens, UniProt Q04771, R206H); test: Cell-based ALK2-R206H cell activity assay (Smad1-Ser463/Ser465 phosphorylation by AlphaLISA in HEK293-ALK2-R206H cells)
T2 construct: expressed in transfected cells; host or cells: HEK293 (ATCC CRL1573), lentivirus transduction, blasticidin selection
T2 sequence (Q04771 21-509 R206H): T1 sequence (Q04771 21-509 R206H)
Summary of the method: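 Stable HEK293 cells expressing C-terminally FLAG-tagged human ALK2 R206H (lentiviral, blasticidin-selected) were treated with compounds in 10-point, 3-fold dilutions from 10 μM or 1 μM top, in duplicate. Smad1 Ser463/Ser465 phosphorylation was read by AlphaLISA.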

[3] = ALK2 R206H, LANTHASCREEN TR-FRET competitive binding, read-out: Binding Assay (IC50)
[4] = read-out: Cell Line (Cell Assay IC50)

Row | IC50 [1, 3] [nM] | IC50 [2, 4] [nM] | SMILES | IC50 [1] [nM] | IC50 ([2]; Cell Line (Cell Assay IC50)) [nM]
1 | < 10 | < 100 | CCN1CC[C@H](c2ccc(-c3cc4c(N5CCN(C(=O)N6CC(C#N)C6)CC5)ccnn4c3)cc2)C1 [Compound 304] | – | –
2 | < 10 | 100 to 500 | CCN1CCN(c2ccc(-c3cc4c(N5CCN(C(=O)C6CCC6)CC5)ccnn4c3)cc2)CC1 [Compound 262] | – | –
3 | < 10 | < 100 | CC(C)N1CCC[C@H](c2ccc(-c3cc4c(N5CCN(C(=O)[C@H]6C[C@H](O)C6)CC5)ccnn4c3)cc2)C1 [Compound 387] | – | –
4 | < 10 | < 100 | CCNC(=O)N1CCN(c2ccnn3cc(-c4ccc(N5CCN(C(C)C)CC5)cn4)cc23)CC1 [Compound 546] | – | –
5 | < 10 | 100 to 500 | N#C[C@H]1C[C@H](C(=O)N2CCN(c3ccnn4cc(-c5ccc([C@@H]6CCCNC6)cn5)cc34)CC2)C1 [Compound 500] | – | –
6 | < 10 | < 100 | CCNC(=O)N1CCN(c2ccnn3cc(-c4ccc([C@]5(F)CCCNC5)cc4)cc23)CC1 [Compound 188] | – | –
7 | < 10 | < 100 | CCN1CC[C@@H](c2ccc(-c3cc4c(N5CCN(C(=O)C6CC6)CC5)ccnn4c3)cc2)C1 [Compound 148] | – | –
8 | < 10 | < 100 | CCN1CCC(c2ccc(-c3cc4c(N5CCN(C(=O)[C@H]6CC6(C)C)CC5)ccnn4c3)cc2)C1 (stereo partly drawn) [Compound 251] | – | –
9 | < 10 | 100 to 500 | O=C(C1CC1)N1CCN(c2ccnn3cc(-c4ccc(CNC5COC5)cc4)cc23)CC1 [Compound 760] | – | –
10 | < 10 | < 100 | CC(C)N1CC[C@H](c2ccc(-c3cc4c(N5CCN(C(=O)C6CC6)CC5)ccnn4c3)nc2)C1 [Compound 486] | – | –
11 | < 10 | < 100 | CC(C)N[C@@H](CO)c1ccc(-c2cc3c(N4CCN(C(=O)C5CC5)CC4)ccnn3c2)cc1 [Compound 770] | – | –
12 | < 10 | < 100 | CCNC(=O)N1CCN(c2ccnn3cc(-c4ccc([C@@H]5CCCN5C(C)C)nc4)cc23)CC1 [Compound 494] | – | –
13 | < 10 | 100 to 500 | C[C@@H]1CNC[C@H](c2ccc(-c3cc4c(N5CCN(C(=O)C6CC6)CC5)ccnn4c3)cc2)O1 [Compound 164] | – | –
14 | – | – | COC(=O)C1(c2ccc(-c3cc4c(N5CCN(C(=O)OC6COC6)CC5)ccnn4c3)cc2)CCN(C(C)C)CC1 [Compound 874] | < 10 | 100 to 500
15 | < 10 | < 100 | N#C[C@H]1C[C@@H]1C(=O)N1CCN(c2ccnn3cc(-c4ccc(C5CNCCO5)cc4)cc23)CC1 (stereo partly drawn) [Compound 195] | – | –
16 | < 10 | < 100 | CO[C@]1(c2ccc(-c3cc4c(N5CCN(C(=O)C6CC6)CC5)ccnn4c3)cc2)CCCNC1 [Compound 489] | – | –
17 | < 10 | < 100 | O=C(C1CC1)N1CCN(c2ccnn3cc(-c4ccc(C5CCCN5)cn4)cc23)CC1 (stereo not drawn) [Compound 452] | – | –
18 | < 10 | < 100 | CC(C)N1CC[C@@H](c2ccc(-c3cc4c(N5CCN(C(=O)[C@H]6C[C@H](C#N)C6)CC5)ccnn4c3)cc2)C1 [Compound 364] | – | –
19 | < 10 | < 100 | CCO[C@]1(c2ccc(-c3cc4c(N5CCN(C(=O)OC6COC6)CC5)ccnn4c3)cc2)CCCNC1 [Compound 815] | – | –
20 | < 10 | 100 to 500 | O=C(C1CC1)N1CCN(c2ccnn3cc(-c4ccc(C5CCCN5)cn4)cc23)CC1 (stereo not drawn) [Compound 454] | – | –
21 | < 10 | < 100 | CC(C)N1CCN[C@@H](c2ccc(-c3cc4c(N5CCN(C(=O)C6CC6)CC5)ccnn4c3)cc2)C1 [Compound 518] | – | –

Row | IC50 [1, 3] [nM] | IC50 [2, 4] [nM] | SMILES | IC50 [1] [nM] | IC50 ([2]; Cell Line (Cell Assay IC50)) [nM]
22 | < 10 | < 100 | CCOC1(c2ccc(-c3cc4c(N5CCN(C(=O)NC(C)C)CC5)ccnn4c3)nc2)CCN(C(C)CF)CC1 (stereo not drawn) [Compound 860] | – | –
23 | < 10 | < 100 | CC(C)N1CCC[C@@]1(C)c1ccc(-c2cc3c(N4CCN(C(=O)C5CC5)CC4)ccnn3c2)cc1 [Compound 509] | – | –
24 | < 10 | < 100 | CCN1CC[C@H](c2ccc(-c3cc4c(N5CCN(C(=O)C6CC6)CC5)ccnn4c3)cc2)C1 [Compound 149] | – | –
25 | < 10 | < 100 | CC(C)N1CC[C@H](O)[C@@H](c2ccc(-c3cc4c(N5CCN(C(=O)OC6COC6)CC5)ccnn4c3)cc2)C1 [Compound 678] | – | –
26 | < 10 | < 100 | CCOC1(c2ccc(-c3cc4c(N5CCN(C(=O)OC6COC6)CC5)ccnn4c3)nc2)CCN(CC(C)F)CC1 (stereo not drawn) [Compound 880] | – | –
27 | < 10 | < 100 | CCNC(=O)N1CCN(c2ccnn3cc(-c4ccc(C5(O)CCCN(C(C)C)C5)cc4)cc23)CC1 (stereo not drawn) [Compound 351] | – | –
28 | < 10 | < 100 | CC(C)N1CCC[C@@H](c2ccc(-c3cc4c(N5CCN(C(=O)[C@H]6CC[C@H](C#N)CC6)CC5)ccnn4c3)cc2)C1 [Compound 434] | – | –
29 | < 10 | > 500 | O=C(OC(CO)CO)N1CCN(c2ccnn3cc(-c4ccc(C5CCNCC5)cc4)cc23)CC1 [Compound 789, 1,3-dihydroxypropan-2-yl 4-(6-(4-(piperidin-4-yl)phenyl)pyrrolo[1,2-b]pyridazin-4-yl)piperazine-1-carboxylate] | – | –
30 | < 10 | < 100 | CC(C)N[C@H](CO)c1ccc(-c2cc3c(N4CCN(C(=O)OC5COC5)CC4)ccnn3c2)cc1 [Compound 791] | – | –
31 | < 10 | < 100 | O=C(C1CC1)N1CCN(c2ccnn3cc(-c4ccc([C@@H]5CCCN(C6CCC6)C5)cc4)cc23)CC1 [Compound 305] | – | –
32 | < 10 | < 100 | CC(C)NC(=O)N1CCN(c2ccnn3cc(-c4ccc(C5(C#N)CCNCC5)cc4)cc23)CC1 [Compound 502] | – | –
33 | < 10 | < 100 | CC(C)NC(=O)N1CCN(c2ccnn3cc(-c4ccc([C@]5(C)CN(C(C)C)CCN5)cc4)cc23)CC1 [Compound 634] | – | –
34 | < 10 | 100 to 500 | CC(C)N1CCC(c2ccc(-c3cc4c(N5CCN(C(=O)OC6COC6)CC5)ccnn4c3)c(Cl)c2)CC1 [Compound 726] | – | –
35 | < 10 | < 100 | CCOC(=O)N1CCN(c2ccnn3cc(-c4ccc([C@H]5CCCN(C(C)C)C5)cn4)cc23)CC1 [Compound 545] | – | –
36 | < 10 | < 100 | CCNC(=O)N1CCN(c2ccnn3cc(-c4ccc([C@@H]5CCN(C(C)C)C5)cc4)cc23)CC1 [Compound 224] | – | –
37 | < 10 | < 100 | CCOC(=O)N1CCN(c2ccnn3cc(-c4ccc(C5(OC)CCNC(C)(C)C5)cn4)cc23)CC1 (stereo not drawn) [Compound 802] | – | –
38 | < 10 | < 100 | O=C(OC1COC1)N1CCN(c2ccnn3cc(-c4ccc(N5CCNCC5)cc4)cc23)CC1 [Compound 775] | – | –
39 | < 10 | < 100 | CCOC(=O)N1CCN(c2ccnn3cc(-c4ccc([C@]5(OC)CCCNC5)cc4)cc23)CC1 [Compound 777] | – | –
40 | < 10 | < 100 | CCN1CCN(c2ccc(-c3cc4c(N5CCN(C(=O)[C@H]6C[C@H]6F)CC5)ccnn4c3)cc2)CC1 [Compound 293] | – | –
41 | < 10 | 100 to 500 | CC(C)N1CCC(c2ccc(-c3cc4c(N5CCN(C(=O)Nc6ccccc6)CC5)ccnn4c3)cc2)CC1 [Compound 838] | – | –
42 | < 10 | 100 to 500 | CN1CCN(c2ccc(-c3cc4c(N5CCN(C(=O)C6CCC6)CC5)ccnn4c3)cc2)CC1 [Compound 212] | – | –

Row | SMILES | IC50 [1, 3] [nM] | IC50 [2, 4] [nM] | IC50 [1] [nM] | IC50 ([2]; Cell Line (Cell Assay IC50)) [nM]
43 | CC(C)N1CCC(COC(F)F)(c2ccc(-c3cc4c(N5CCN(C(=O)C6CC6)CC5)ccnn4c3)cc2)CC1 [Compound 859] | < 10 | < 100 | – | –
44 | COC[C@@H](C)N1CCC(OC)(c2ccc(-c3cc4c(N5CCN(C(=O)OC6COC6)CC5)ccnn4c3)nc2)CC1 [Compound 744] | < 10 | < 100 | – | –
45 | COC1(c2ccc(-c3cc4c(N5CCN(C(=O)[C@H]6C[C@@H]6C#N)CC5)ccnn4c3)cc2)CCN(C(C)C)CC1 [Compound 705] | < 10 | < 100 | – | –
46 | COC1(c2ccc(-c3cc4c(N5CCN(C(=O)C6CC6)CC5)ccnn4c3)c(C#N)c2)CCN(C(C)C)CC1 [Compound 839] | < 10 | < 100 | – | –
47 | CCOC1(c2ccc(-c3cc4c(N5CCN(C(=O)[C@H]6C[C@H](C#N)C6)CC5)ccnn4c3)nc2)CCN(C(C)C)CC1 [Compound 871] | < 10 | < 100 | – | –
48 | COC1(c2ccc(-c3cc4c(N5CCN(C(=O)C6CC6)CC5)ccnn4c3)cc2)CCN([C@@H](C)COC(F)F)CC1 [Compound 883] | < 10 | < 100 | – | –
49 | COC1(c2ccc(-c3cc4c(N5CCN(C(=O)C6CC6)CC5)ccnn4c3)nc2)CCN(C2COC2)CC1 [Compound 660] | < 10 | < 100 | – | –
50 | COC1(c2ccc(-c3cc4c(N5CCN(C(=O)C6CC6)[C@H](C)C5)ccnn4c3)cc2)CCN(C(C)C)CC1 [Compound 659] | < 10 | < 100 | – | –
51 | COC[C@H](C)N1CCC(OC)(c2ccc(-c3cc4c(N5CCN(C(=O)OC6COC6)CC5)ccnn4c3)nc2)CC1 [Compound 743] | < 10 | < 100 | – | –
